In brackets after ≈: the same amount, converted by molar mass. Blank lines part the entries; values can stand above or below the compound they belong to. Activity calls are given as the source filed them. No cut-off for these calls is given here.
What was measured:
Staphylococcus aureus [1] = test: Minimal inhibitory concentration for Staphylococcus aureus bacteria (ATCC 9604 SV) was determined by broth microdilution methodology; type: functional
Mus musculus [2] = test: In vivo efficacy versus methicillin resistant Staphylococcus aureus in mice administered sc at 2x20mg/kg, expressed as percent survival; type: functional
Mus musculus [3] = test: In vivo efficacy versus methicillin resistant Staphylococcus aureus in mice administered sc at 2x2mg/kg, expressed as percent survival; type: functional
Staphylococcus aureus [4] = test: Concentration that inhibits 50% growth of methicillin resistant Staphylococcus aureus in the microdilution wells; IA=Inactive; type: functional, organism-based
Staphylococcus aureus [5] = test: Minimal inhibitory concentration for Staphylococcus aureus bacteria (ATCC 9604 SV) was determined by broth microdilution methodology; IA=Inactive; type: functional, organism-based
Staphylococcus aureus [6] = test: Concentration that inhibits 50% growth of methicillin resistant Staphylococcus aureus in the microdilution wells; type: functional, organism-based
Mus musculus [7] = test: In vivo efficacy versus methicillin resistant Staphylococcus aureus in mice administered sc at 20 mg/kg, expressed as percent survival; type: functional; details: route subcutaneous
Mus musculus [8] = test: In vivo efficacy versus methicillin resistant Staphylococcus aureus in mice administered sc at 2mg/kg, expressed as percent survival; type: functional

SMILES: CC(C)(C)c1csc(NC(=O)NCc2cccc(Cl)c2)n1
MIC (Staphylococcus aureus [1]): 8.1 µg/mL (≈ 25 µM)
Survival (Mus musculus [2]): 50%
Survival (Mus musculus [3]): 25%

SMILES: O=C(Nc1ccc(C(F)(F)F)cc1Cl)Nc1cc(-c2ccccc2)nn1-c1ccc(C(F)(F)F)cc1
IC50 (Staphylococcus aureus [4]): Not Active
MIC (Staphylococcus aureus [5]): inactive

SMILES: O=C(Nc1ccc(Cl)c(C(F)(F)F)c1)Nc1cc(-c2ccccc2)nn1-c1ccc(C(F)(F)F)cc1
IC50 (Staphylococcus aureus [6]): 96 nM
MIC (Staphylococcus aureus [1]): < 0.787 µg/mL

SMILES: Cc1sc(NC(=O)Nc2cc(C(F)(F)F)cc(C(F)(F)F)c2)nc1-c1ccc(Br)cc1
IC50 (Staphylococcus aureus [6]): 838 nM

SMILES: O=C(Nc1cc(C(F)(F)F)cc(C(F)(F)F)c1)Nc1nc(CCCO)cs1
IC50 (Staphylococcus aureus [6]): 2070 nM

SMILES: CCOC(=O)c1cnn(-c2ccc(Br)cc2)c1NC(=O)Nc1cc(C(F)(F)F)cc(C(F)(F)F)c1
IC50 (Staphylococcus aureus [6]): 261 nM
MIC (Staphylococcus aureus [1]): < 0.848 µg/mL

SMILES: O=C(Nc1cc(C(F)(F)F)cc(C(F)(F)F)c1)Nc1cc(CO)nn1-c1ccc(Br)cc1
IC50 (Staphylococcus aureus [6]): 4240 nM
MIC (Staphylococcus aureus [1]): 6.54 µg/mL (≈ 12.5 µM)
Survival (Mus musculus [2]): 33%
Survival (Mus musculus [3]): 33%

SMILES: O=C(Nc1cc(C(F)(F)F)cc(C(F)(F)F)c1)Nc1c(-c2ccccc2)cnn1-c1ccc(C(F)(F)F)cc1
survival at 20 mg/kg (Mus musculus [7]): 0%
IC50 (Staphylococcus aureus [6]): 330 nM
survival at 2 mg/kg (Mus musculus [8]): 0%

SMILES: Cc1cc(NC(=O)Nc2cc(C(F)(F)F)cc(C(F)(F)F)c2)n(-c2ccc(Br)cc2)n1
IC50 (Staphylococcus aureus [6]): 268 nM
MIC (Staphylococcus aureus [1]): < 0.761 µg/mL

SMILES: O=C(Nc1ccc(F)c(C(F)(F)F)c1)Nc1nc(-c2ccc(F)c(F)c2)cs1
survival at 20 mg/kg (Mus musculus [7]): 0%
IC50 (Staphylococcus aureus [6]): 180 nM
survival at 2 mg/kg (Mus musculus [8]): 0%
MIC (Staphylococcus aureus [1]): < 0.626 µg/mL

SMILES: O=C(Nc1cc(Cl)cc(Cl)c1)Nc1cc(-c2ccccc2)nn1-c1ccc(C(F)(F)F)cc1
survival at 20 mg/kg (Mus musculus [7]): 12.5%
IC50 (Staphylococcus aureus [6]): 81 nM
survival at 2 mg/kg (Mus musculus [8]): 0%
MIC (Staphylococcus aureus [1]): 12.3 µg/mL (≈ 25 µM)

SMILES: COc1cc(NC(=O)Nc2nc(-c3ccc(Cl)cc3)cs2)cc(OC)c1
IC50 (Staphylococcus aureus [6]): > 5000 nM

SMILES: O=C(Nc1cc(C(F)(F)F)cc(C(F)(F)F)c1)Nc1cc(-c2ccccc2)nn1-c1ccc(C(F)(F)F)cc1
survival at 20 mg/kg (Mus musculus [7]): 0%
IC50 (Staphylococcus aureus [6]): 54 nM
survival at 2 mg/kg (Mus musculus [8]): 0%
MIC (Staphylococcus aureus [1]): < 0.838 µg/mL

SMILES: O=C(Nc1ccccc1-c1ccccc1)Nc1cc(-c2ccccc2)nn1-c1ccc(C(F)(F)F)cc1
IC50 (Staphylococcus aureus [4]): Not Active
MIC (Staphylococcus aureus [5]): inactive

SMILES: O=C(NCc1cccc(Cl)c1)Nc1nc(C2CCCC2)cs1
MIC (Staphylococcus aureus [1]): 8.4 µg/mL (≈ 25 µM)
Survival (Mus musculus [2]): 25%
Survival (Mus musculus [3]): 25%

SMILES: CN[C@H](CC(C)C)C(=O)N[C@H]1C(=O)N[C@@H](CC(N)=O)C(=O)N[C@H]2C(=O)N[C@H]3C(=O)N[C@H](C(=O)N[C@H](C(=O)O)c4cc(O)cc(O)c4-c4cc3ccc4O)[C@H](O)c3ccc(c(Cl)c3)Oc3cc2cc(c3O[C@@H]2O[C@H](CO)[C@@H](O)[C@H](O)[C@H]2O[C@H]2C[C@](C)(N)[C@H](O)[C@H](C)O2)Oc2ccc(cc2Cl)[C@H]1O [VANCOMYCIN]
IC50 (Staphylococcus aureus [6]): 839 nM
MIC (Staphylococcus aureus [1]): 0.75 µg/mL (≈ 0.518 µM)
Survival (Mus musculus [2]): 100%
Survival (Mus musculus [3]): 25%

SMILES: O=C(Nc1ccc(SC(F)(F)F)cc1)Nc1nc(-c2ccc(F)c(F)c2)cs1
IC50 (Staphylococcus aureus [6]): 134 nM
MIC (Staphylococcus aureus [1]): < 0.647 µg/mL

SMILES: O=C(Nc1nc(-c2ccc(Cl)cc2)cs1)Nc1c(Cl)cc(Cl)cc1Cl
IC50 (Staphylococcus aureus [6]): 927 nM

SMILES: COCCN(CCOC)Cc1cc(NC(=O)Nc2cc(C(F)(F)F)cc(C(F)(F)F)c2)n(-c2ccc(Br)cc2)n1
survival at 20 mg/kg (Mus musculus [7]): 25%
IC50 (Staphylococcus aureus [6]): 1560 nM
survival at 2 mg/kg (Mus musculus [8]): 25%
MIC (Staphylococcus aureus [1]): 16 µg/mL (≈ 25.1 µM)
Survival (Mus musculus [2]): 33%
Survival (Mus musculus [3]): 0%

SMILES: O=C(Nc1cc(C(F)(F)F)cc(C(F)(F)F)c1)Nc1nc(CCc2ccccc2)cs1
IC50 (Staphylococcus aureus [6]): 367 nM
MIC (Staphylococcus aureus [1]): 23 µg/mL (≈ 50.1 µM)

SMILES: O=C(Nc1cccc(Br)c1)Nc1nc(-c2ccc(Br)cc2)cs1
IC50 (Staphylococcus aureus [6]): 543 nM

SMILES: O=C(Nc1cc(Cl)cc(Cl)c1)Nc1cc(-c2cccs2)nn1-c1ccc(Br)cc1
survival at 20 mg/kg (Mus musculus [7]): 25%
IC50 (Staphylococcus aureus [6]): 71 nM
survival at 2 mg/kg (Mus musculus [8]): 0%
MIC (Staphylococcus aureus [1]): 0.847 µg/mL (≈ 1.67 µM)

SMILES: CCOC(=O)c1cc(NC(=O)Nc2cc(C(F)(F)F)cc(C(F)(F)F)c2)n(-c2ccc(Br)cc2)n1
IC50 (Staphylococcus aureus [6]): 3100 nM
MIC (Staphylococcus aureus [1]): > 14.1 µg/mL
Survival (Mus musculus [2]): 33%
Survival (Mus musculus [3]): 0%

SMILES: COc1ccc(-c2csc(NC(=O)Nc3cc(C(F)(F)F)cc(C(F)(F)F)c3)n2)c(OC)c1
IC50 (Staphylococcus aureus [6]): > 5000 nM

SMILES: O=C(Nc1cc(Cl)cc(Cl)c1)Nc1cc(-c2ccccc2)nn1-c1ccc(Cl)cc1
survival at 20 mg/kg (Mus musculus [7]): 25%
IC50 (Staphylococcus aureus [6]): 148 nM
survival at 2 mg/kg (Mus musculus [8]): 25%
MIC (Staphylococcus aureus [1]): > 22.9 µg/mL

SMILES: Cc1cc(C)cc(NC(=O)Nc2cc(-c3ccccc3)nn2-c2ccc(C(F)(F)F)cc2)c1
IC50 (Staphylococcus aureus [4]): Not Active
MIC (Staphylococcus aureus [5]): inactive

SMILES: Cc1cc(C)cc(NC(=O)Nc2nc(-c3ccc(Cl)cc3)cs2)c1
IC50 (Staphylococcus aureus [6]): > 5000 nM

SMILES: COc1ccc(OC)c(-c2csc(NC(=O)Nc3cc(C(F)(F)F)cc(C(F)(F)F)c3)n2)c1
IC50 (Staphylococcus aureus [6]): > 5000 nM

SMILES: O=C(Nc1cc(C(F)(F)F)cc(C(F)(F)F)c1)Nc1nc(-c2cccs2)cs1
IC50 (Staphylococcus aureus [6]): 259 nM
MIC (Staphylococcus aureus [1]): 1.31 µg/mL (≈ 3 µM)

SMILES: Cc1ccccc1NC(=O)Nc1cc(-c2ccccc2)nn1-c1ccc(C(F)(F)F)cc1
IC50 (Staphylococcus aureus [4]): Not Active
MIC (Staphylococcus aureus [5]): inactive

SMILES: O=C(Nc1cc(C(F)(F)F)cc(C(F)(F)F)c1)Nc1cc(-c2ccncc2)nn1-c1ccc(C(F)(F)F)cc1
survival at 20 mg/kg (Mus musculus [7]): 25%
IC50 (Staphylococcus aureus [6]): 214 nM
survival at 2 mg/kg (Mus musculus [8]): 25%
MIC (Staphylococcus aureus [1]): 1.68 µg/mL (≈ 3 µM)
Survival (Mus musculus [2]): 17%
Survival (Mus musculus [3]): 0%

MIC (Staphylococcus aureus [1]): 11.4 µg/mL (≈ 24.9 µM)
SMILES: O=C(NCc1ccc(Cl)c(Cl)c1)Nc1nc(-c2ccc(Br)cc2)cs1

SMILES: O=C(Nc1cc(C(F)(F)F)cc(C(F)(F)F)c1)Nc1nc(-c2ccc(Br)cc2)cs1
IC50 (Staphylococcus aureus [6]): 133 nM

SMILES: O=C(Nc1nc(-c2ccc(Cl)cc2)cs1)Nc1ccc(Br)cc1C(F)(F)F
IC50 (Staphylococcus aureus [6]): 4710 nM

SMILES: CC(C)(C)c1cc(NC(=O)Nc2cc(Cl)cc(Cl)c2)n(-c2ccc(Br)cc2)n1
survival at 20 mg/kg (Mus musculus [7]): 0%
IC50 (Staphylococcus aureus [6]): 132 nM
survival at 2 mg/kg (Mus musculus [8]): 0%
MIC (Staphylococcus aureus [1]): < 0.723 µg/mL

Reference: ChEMBL document CHEMBL1136498, “Ureas of 5-aminopyrazole and 2-aminothiazole inhibit growth of gram-positive bacteria” (Bioorg Med Chem Lett, 2003)
